These results are taken from patent publication US12234257B2, “Triterpene saponin derivative and use thereof” (KOREA INSTITUTE OF SCIENCE AND TECHNOLOGY, priority 2020, dated 2025).

The experiment relates to autophagy-related protein markers (LC3-II, p62, p-AMPK, p-Erk, p-ULK, p-mTOR) in SH-SY5Y cells. Description: Western blot of autophagy-related protein markers in SH-SY5Y cells. Format: cell-based, human. On the procedure: Human neuroblastoma (SH-SY5Y) cells were purchased from the American Type Culture Collection (Manassas, Va., USA) and cultured in DMEM supplemented with 10% heat-inactivated FBS and 1% penicillin/streptomycin. The SH-SY5Y cells were cultured at 37° C. in a humid atmosphere containing 5% CO2. […] The SH-SY5Y cells were transfected with AMPK siRNA and then administered with AKNS-2 at 36 hours after siRNA transfection. […] After 24 hours from treatment with the samples, the SH-SY5Y cells were recovered and used for subsequent analysis. At 24 hours after drug treatment, the culture medium was removed from the 6-well plate, and the cells were gently washed once with cold saline. Subsequently, 1 mL of cold saline was added to each well, and cells attached to the bottom were floated by rubbing the bottom with a 1 mL pipette. The suspension was collected in a 1.5 mL tube and centrifuged at 4° C. at 13000×g for 5 minutes. After removing a supernatant, 50 μL of a RIPA lysis buffer including a protease inhibitor cocktail (Roche, Mannheim, Germany) and purchased from Cell Signaling Technology (Danvers, Mass., USA) was added to the cell pellet. After shaking the mixture at 4° C. for 30 minutes, the obtained cells were centrifuged at 4° C. at 13000×g for 20 minutes. A supernatant was collected therefrom, and a concentration of proteins was measured using a standard curve constructed using BSA by the Bradford method. Then, the supernatant was diluted with a loading buffer and heated at 99° C. for 5 minutes. Resultant cells were used in a subsequent western blot analysis. Protein markers contained in lysates of the SH-SY5Y cells and brain tissue of the mice (SNpc and ST) were measured by western blot analysis. Briefly, after determining a concentration, a protein sample (20 μg) was separated by 8%, 10%, or 15% sodium dodecyl sulfate-polyacrylamide gel electrophoresis (SDS-PAGE). Then, proteins separated on the gel were transferred to a polyvinylidene fluoride (PVDF) membrane for 45 minutes using a Trans-Blot Turbo Transfer System (Bio-Rad, USA). […] The membrane was further incubated with monoclonal primary antibodies derived from rabbits (anti-GAPDH, anti-AMPK, anti-p-AMPK, anti-ULK, anti-p-ULK555, anti-Erk, anti-p-Erk, anti-mTOR, anti-p-mTOR, anti-LC3B, anti-TH, and anti-α-synuclein antibodies). The primary antibodies were diluted in a blocking buffer at a ratio of 1:1000 and incubated overnight at 4° C. On the second day, the membrane was washed with TBST three times (10 minutes each) and incubated at room temperature in a horseradish peroxidase-conjugated goat anti-rabbit IgG secondary antibody (diluted in a blocking buffer at a ratio of 1:2000). After incubating in the secondary antibody for 1 hour, the membrane was washed for 30 minutes. The protein blots on the membrane were developed using an ECL detection kit and visualized using an LAS-4000 mini system (Fujifilm, Japan). The intensity of the protein blots was quantified using Multi Gauge software (Fujifilm, Japan).

Setting [1] is: AKNS-2 5 μM and 10 μM, vs control.

Molecules are shown by their SMILES.

Consider `C[C@@H]1O[C@@H](O[C@@H]2[C@@H](O)[C@H](O[C@@H]3[C@@H](O[C@@H]4OC[C@@H](O)[C@H](O)[C@H]4O)[C@@H](O)[C@H](O[C@H]4[C@H](OC(=O)[C@]56CCC(C)(C)C[C@H]5C5=CC[C@@H]7[C@@]8(C)C[C@H](O)[C@H](O[C@@H]9O[C@H](CO)[C@@H](O)[C@H](O[C@@H]%10OC[C@@H](O)[C@H](O)[C@H]%10O)[C@H]9O)[C@@](C)(CO)[C@@H]8CC[C@@]7(C)[C@]5(C)C[C@H]6O)OC[C@H](O)[C@@H]4O)O[C@H]3C)OC[C@H]2O)[C@H](O)[C@H](O)[C@H]1O` [Compound 1, 3-O-β-D-xylopyranosyl-(1→3)-β-D-glucopyranosylpolygalacic acid 28-O-α-L-rhamnopyranosyl-(1→3)-β-D-xylopyranosyl-(1→4)-[β-D-xylopyranosyl-(1→3)]-α-L-rhamnopyranosyl-(1→2)-α-L-arabinopyranosyl ester], for which, under “24 hours, 10 μM and 20 μM”, the “expression level of p-Erk” value is listed as “the expression level of p-Erk significantly increased” and the “expression of p-mTOR” value was “The expression of p-mTOR was inhibited”. Moreover, where the note is “24 hours, 5, 10 and 20 μM”, the “expression level of p-AMPK” value is “the expression levels of p-AMPK and p-ULK significantly increased”; the “expression level of p-ULK” value is “the expression levels of p-AMPK and p-ULK significantly increased”; the “expression of LC3-II” value is listed as “induced the expression of LC3-II, which is an important autophagy marker, in a dose-dependent manner”. The “expression level of LC3-II” value (AKNS-2 5 μM and 10 μM, 24 hours, vs control) is reported as “The expression level of LC3-II was significantly increased”. Moreover, under setting [1], the “expression level of p-Erk” value is recorded as “significantly increased expression levels of p-Erk”, the “expression of p-AMPK” value is on record as “Significantly increased expression” and the “expression of p-ULK555” value is “significantly increased expression of p-ULK555”. Further, where the note is “AKNS-2 10 μM alone”, the “expression level of LC3-II” value is reported as “significantly increased the expression level of LC3-II” and the “expression of p62” value was “induced a significant decrease in expression of p62”. Moreover, the “expression of p-mTOR” value (AKNS-2 10 μM, vs control) was “significantly inhibited the expression p-mTOR”. For the same compound, the “expression of p-mTOR” value (AKNS-2 (5 μM and 10 μM), AMPK siRNA experiment, normal cells) is “significantly inhibited the expression of p-mTOR”.
